Laboratory results from ChEMBL document CHEMBL6096723, “Discovery of novel capsaicin analogs as TRPV1 inhibitors for the treatment of idiopathic pulmonary fibrosis” (Eur J Med Chem, 2025).
pIC50: −log10 of the molar value. The source made the active and inactive calls. The rule behind the calls is not given here.

Legend:
NIH3T3 [1] = test: Anti-fibrotic activity in mouse NIH3T3 cells assessed as inhibition of TGFbeta-induced total collagen production at 10 uM measured after 48 hrs by Sirius Red Collagen Detection Kit relative to control; format: functional
[2] = Cytotoxicity against mouse NIH3T3 cells assessed as survival rate at 10 uM measured after 24 hrs by CCK-8 assay relative to control; format: toxicity, cell-based; conditions: read-out: Survival
NIH3T3 [3] = test: Inhibition of TGFbeta1-induced proliferation of mouse NIH3T3 cells assessed as colony formation at 10 uM measured after 7 to 14 days by Crystal violet staining based assay; format: functional, cell-based; conditions: time 7-14 day
NIH3T3 [4] = test: Anti-fibrotic activity in mouse NIH3T3 cells assessed as inhibition of TGFbeta-induced total collagen production measured after 48 hrs by Sirius Red Collagen Detection Kit relative to control; format: functional, cell-based; conditions: NIH3T3, 48 h
L929 = test: Anti-migratory activity in mouse L929 cells assessed as inhibition of TGFbeta1-induced migration at 10 uM measured after 24 hrs by Wound healing assay; format: functional, cell-based

SMILES | inhibition at 10 µM (NIH3T3 [1]) | viability at 24 h, 10 µM [2] | inhibition (NIH3T3 [3]) | pIC50 (NIH3T3 [4]) | Activity (L929)
CCCCC(=O)NCc1ccc(OC(C)=O)c(OC(C)=O)c1 | 53% | 131% |  |  | 
O=C(CCCCc1ccccc1)NCc1ccc(O)c(O)c1 | 65.2% | 118% |  |  | 
O=C(CCc1ccccc1)CC(O)CCc1ccccc1 (configuration not stated) | 62.9% | 111% |  |  | 
CCCCCCCC(=O)NCc1ccc(OC)c(OC)c1 | 11.6% | 103% |  |  | 
CCCCC(=O)NCc1ccc(O)c(O)c1 | 54.2% | 123% |  |  | 
CC(=O)Oc1ccc(CNC(=O)CCCCc2ccccc2)cc1OC(C)=O | 70.6% | 129% | Active | 5.84 | 
CCCCCC(=O)NCc1ccc(O)c(O)c1 | 60.2% | 118% |  |  | 
COC(=O)c1ccc2c(c1)NC(=O)/C2=C(\Nc1ccc(N(C)C(=O)CN2CCN(C)CC2)cc1)c1ccccc1 [NINTEDANIB] | 89.5% | 20.5% | Active | 6.57 | 
COc1ccc(CNC(=O)CCCCc2ccccc2)cc1OC | -9.64% | 91.2% |  |  | 
COc1cc(/C=C/C(=O)CC(O)/C=C/c2ccc(O)c(OC)c2)ccc1O (configuration not stated) | 19.4% | 85% |  |  | 
CCCCCCCCC(=O)NCc1ccc(OC(C)=O)c(OC)c1 | 56.4% | 129% |  |  | 
CCCCCCCCCC(=O)NCc1ccc(OC)c(OC)c1 | -5.71% | 101% |  |  | 
COc1ccc(CCC(=O)CCCCc2cccc(O)c2)cc1 | 67.6% | 91.1% | Active | 5.68 | 
CCCCCCCCCC(=O)NCc1ccc(O)c(O)c1 | 64.8% | 121% |  |  | 
OC(CCc1ccccc1)CC(O)CCc1ccccc1 (configuration not stated) | 46.9% | 101% |  |  | 
COc1ccc(CCC(=O)CCCCc2cccc(O)c2)cc1O | 60.6% | 95.7% |  |  | 
OC(/C=C/C=C/c1ccccc1)CCc1ccccc1 (configuration not stated) | 61.9% | 119% |  |  | 
O=C(CC/C=C/c1ccccc1)CCc1ccc(O)cc1 | 40.1% | -3.97% |  |  | 
C(=C\C=C\c1ccccc1)/C=C/Cc1ccccc1 | 57.5% | -2.34% |  |  | 
COC(/C=C/C=C/c1ccccc1)CCc1ccc(O)cc1 (configuration not stated) | 57.7% | 111% |  |  | 
CCCCCCCC(=O)NCc1ccc(OC(C)=O)c(OC(C)=O)c1 | 56.3% | 151% |  |  | 
CC(C)CC(=O)NCc1ccc(O)c(O)c1 | 10.4% | 115% |  |  | 
COc1cc(CNC(=O)CCCC/C=C/C(C)C)ccc1O [CAPSAICIN] | 35.3% | 98.6% |  |  | 
CCCCCCCCCC(=O)NCc1ccc(OC(C)=O)c(OC(C)=O)c1 | 68.9% | 141% | Active | 5.58 | 
COc1ccc(CCCCC(O)CCc2ccc(OC)c(O)c2)c(OC)c1 (configuration not stated) | 68.5% | 114% |  | 4.66 | 

SMILES | inhibition at 10 µM (NIH3T3 [1]) | viability at 24 h, 10 µM [2] | inhibition (NIH3T3 [3]) | pIC50 (NIH3T3 [4]) | Activity (L929)
CC(=O)Oc1ccc(CCC(CCCCc2ccccc2)OC(C)=O)cc1OC(C)=O (configuration not stated) | 51.9% | 111% |  |  | 
OC(CCCCc1ccccc1)CCc1ccccc1 (configuration not stated) | 72.2% | 74.1% |  | 5.80 | Active
CCCCC(=O)NCc1ccc(OC)c(OC)c1 | -2.64% | 86% |  |  | 
O=C(/C=C/c1ccc(O)cc1)CC(O)/C=C/c1ccc(O)cc1 (configuration not stated) | 72.8% | 101% |  | 5.32 | Active
O=C(CCCCc1ccccc1)CCc1ccc(O)cc1 | 49.7% | 117% |  |  | 
CCCCCCCC(=O)NCc1ccc(O)c(O)c1 | 58.1% | 133% |  |  | 
COc1cc(/C=C/C(O)CC(=O)/C=C/c2ccc(O)cc2)ccc1O (configuration not stated) | -41.6% | 88.9% |  |  | 
CCCCCCCCC(=O)NCc1ccc(O)c(O)c1 | 61.4% | 90.5% |  |  | 
CC(=O)Oc1ccc(CNC(=O)CC(C)C)cc1OC(C)=O | 11.2% | 124% |  |  | 
O=C(CC/C=C/c1ccccc1)CCc1ccccc1 | 55.3% | -1.47% |  |  | 
CCCCCCCCC(=O)NCc1ccc(OC(C)=O)c(OC(C)=O)c1 | 66% | 137% |  |  | 
CCCCCC(=O)NCc1ccc(OC(C)=O)c(OC(C)=O)c1 | 50.9% | 138% |  |  | 
Oc1ccc(CCC(O)CC/C=C/c2ccccc2)cc1O (configuration not stated) | 56.6% | 131% |  |  | 
COc1ccc(OC)c(CCCCC(=O)CCc2ccc(OC)c(O)c2)c1 | 59.2% | 96.8% |  |  | 
O=C(CCCCc1ccccc1)CCc1ccccc1 | 58.8% | 94.1% |  |  | 
Oc1ccc(/C=C/CCC(O)CCc2ccc(O)cc2)cc1 (configuration not stated) | 60.9% | 132% |  |  | 
COc1ccc(CCC(=O)CC/C=C/c2ccccc2)cc1 | 57.7% | 38.8% |  |  | 
COc1cc(CNC(=O)CCCCCCC(C)C)ccc1O [DIHYDROCAPSAICIN] | 50% | 92.3% |  | 4.69 | 
COc1cc(CCC(O)CC/C=C/c2ccccc2)ccc1O (configuration not stated) | 43.7% | 103% |  |  | 
CCCCCC(=O)NCc1ccc(OC)c(OC)c1 | -9.02% | 85.8% |  |  | 
COc1ccc(CCC(/C=C/C=C/c2ccccc2)OC)cc1O (configuration not stated) | 63% | 93.2% |  |  | 
COc1ccc(CNC(=O)CC(C)C)cc1OC | -41.7% | 88.2% |  |  | 
CC(=O)Oc1ccc(/C=C/C(=O)Cc2ccccc2)cc1OC(C)=O | 18.8% | 149% |  |  | 
CCCCCCCCC(=O)NCc1ccc(O)c(OC)c1 [NONIVAMIDE] | 58.7% | 92% |  |  | 
